Laboratory results reported in paper PMC8151276, “An Integrated Approach toward NanoBRET Tracers for Analysis of GPCR Ligand Engagement” (Molecules, 2021).

Columns and labels:
Format in all cases: binding
CCR7 = biological target: T1, CCR7 (Homo sapiens, UniProt P32248); test: NanoBRET screen HiBiT-CCR7 in HEK293; conditions: CCR7
T1 construct: purchased Promega (in-house HiBiT-GPCR construct library, NanoBRET)
T1 sequence (P32248 25-378): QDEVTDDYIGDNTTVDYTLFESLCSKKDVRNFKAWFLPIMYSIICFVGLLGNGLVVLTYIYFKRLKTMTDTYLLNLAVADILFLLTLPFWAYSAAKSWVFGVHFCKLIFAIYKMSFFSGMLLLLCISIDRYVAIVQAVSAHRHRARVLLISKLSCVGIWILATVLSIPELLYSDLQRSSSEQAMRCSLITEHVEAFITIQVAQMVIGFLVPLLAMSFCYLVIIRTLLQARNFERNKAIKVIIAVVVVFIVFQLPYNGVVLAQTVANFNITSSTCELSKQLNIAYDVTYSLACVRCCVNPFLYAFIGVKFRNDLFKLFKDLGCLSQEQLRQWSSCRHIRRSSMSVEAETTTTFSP
Protocol: (§1) Each tracer candidate was screened across the entire library of HiBiT-GPCR constructs using NanoBRET as the detection modality. As depicted in Figure 4A, the specificity of interactions was evaluated through decrease in BRET due to competitive displacement of a bound tracer by excess parental compound. Each tracer was analyzed for binding to each HiBiT-GPCR fusion in the absence and in the presence of competing parental compound. Briefly, HEK293 cells were transfected with HiBiT-GPCR constructs diluted into promoterless DNA to reduce expression and maximize translocation to the cell surface. Each tracer candidate was then screened at concentrations of 1 μM and 0.1 μM across cells expressing these fusions. Cells were treated for 1.5 h with tracer either alone or in the presence of 20 μM competing parental compound (i.e., control). BRET was measured upon addition of purified LgBiT and subsequent complementation with HiBiT genetically fused to a GPCR. The specificity of interactions was assessed through a decrease in BRET signal due to competitive displacement of the bound tracer. To further gauge the robustness of these interactions, the fold response over the control (i.e., BRETtracer/BRETcontrol) was calculated. We chose a 1.5-fold response, which translates to ≥7-fold signal over noise as the minimal threshold required to score an interaction as positive. […]. Below we highlight the screening results obtained for our exemplary fluorescent tracers based on Clozapine, Amitriptyline and AZD1283.
(§2) HiBiT-GPCR DNA constructs were diluted in 10 mM Tris pH 8 to a final concentration of 0.01 μg/μL, arrayed in 96-well plates and stored at −20 °C. For transfection, HEK293 cells were suspended in Opti-MEM (without phenol red) supplemented with 2% fetal bovine serum (Seradigm) and 100 units/mL penicillin–streptomycin (Gibco) at a final concentration of 220,000 cells/mL and dispensed into white 96-well plates at 90 μL/well. Subsequent transfections and screens were carried using an Agilent Bravo Automated Liquid Handling Platform. First, the 96-well HiBiT DNA arrays were diluted 25-fold in Opti-MEM (without serum or phenol red) to a final concentration of 0.0004 μg/μL and 20 μL of the diluted DNAs were transferred into new 96-well plates. Next, promoterless carrier DNA (1 μg/μL) was diluted 25-fold (0.04 μg/μL) and then dispensed into the diluted arrays at 20 μL/well. Following brief mixing, Viafect transfection reagent (Promega) diluted 16-fold into Opti-MEM was dispensed into the plates at 40 μL/well. After mixing by pipetting, plates were incubated for 10 min on the pipetting station deck. The DNA-transfection reagent complexes were then added to plates containing cells. To facilitate the screen, 10 μL of DNA-transfection reagent complexes were added in duplicates to the top 4 and bottom 4 rows, resulting in two identical 48-well arrays per plate. Plates with transfected cells were incubated for 18–20 h at 37 °C/5% CO2. A screen of each tracer across the entire library using two different concentrations requires duplicate plates of transfected cells. Depending on the number of tracers being screened, transfections can be scaled up using the same ratios. The next day, for each tracer, four 20× screening solutions in tracer dilution buffer (Promega) were prepared: two duplicates at final concentration of 20 μM and two duplicates at a final concentration of 2 μM. A competing unmodified compound was added to one of each duplicate at a final concentration of 400 μM. The four resulting solutions were diluted 4-fold in Opti-MEM without serum or phenol red to generate 5× solutions (5 µM and 0.5 µM tracer +/− 100 μM competing compound). To screen the library, a BioTek MultiFlo FX liquid dispenser was used to dispense 22.5 µL of tracer solution to the top 4 rows and 22.5 µL tracer + competing compound solution to the 4 bottom rows. Plates were briefly mixed on an orbital shaker and incubated for 1.5 h at room temperature. […]

GRPR = biological target: T2, GRPR (Homo sapiens, UniProt P30550); test: NanoBRET screen HiBiT-GRPR in HEK293; conditions: GRPR
T2 construct: purchased Promega (in-house HiBiT-GPCR construct library, NanoBRET)
Protocol: as §1, §2

SSTR5 = biological target: T3, SSTR5 (Homo sapiens, UniProt P35346); test: NanoBRET screen HiBiT-SSTR5 in HEK293; conditions: SSTR5
T3 construct: purchased Promega (in-house HiBiT-GPCR construct library, NanoBRET)
Protocol: as §1, §2

T3 sequence (P35346 whole entry): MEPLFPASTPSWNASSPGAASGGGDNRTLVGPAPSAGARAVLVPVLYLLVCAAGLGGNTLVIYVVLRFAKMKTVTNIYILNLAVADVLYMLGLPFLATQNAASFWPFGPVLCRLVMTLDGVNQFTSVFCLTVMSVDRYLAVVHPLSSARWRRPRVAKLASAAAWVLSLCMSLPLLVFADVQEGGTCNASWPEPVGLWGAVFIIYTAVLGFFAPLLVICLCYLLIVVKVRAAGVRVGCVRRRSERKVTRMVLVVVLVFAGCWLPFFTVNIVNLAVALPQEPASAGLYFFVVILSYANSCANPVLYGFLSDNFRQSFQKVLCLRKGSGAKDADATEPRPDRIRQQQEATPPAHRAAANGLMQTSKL
T2 sequence (P30550 whole entry): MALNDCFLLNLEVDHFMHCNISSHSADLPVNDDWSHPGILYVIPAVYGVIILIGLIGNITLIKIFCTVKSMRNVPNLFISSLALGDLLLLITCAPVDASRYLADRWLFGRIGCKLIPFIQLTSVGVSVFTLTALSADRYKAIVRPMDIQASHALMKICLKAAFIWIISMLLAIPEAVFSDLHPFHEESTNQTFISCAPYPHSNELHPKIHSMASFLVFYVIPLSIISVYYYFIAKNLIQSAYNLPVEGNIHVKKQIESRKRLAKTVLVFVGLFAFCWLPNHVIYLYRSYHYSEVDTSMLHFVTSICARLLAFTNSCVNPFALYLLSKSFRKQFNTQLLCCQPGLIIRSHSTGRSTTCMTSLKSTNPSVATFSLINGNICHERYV

SMILES	NanoBRET Fold Response (CCR7; tracer 0.1μM)	NanoBRET Fold Response (CCR7; tracer 1μM)	NanoBRET Fold Response (GRPR; tracer 0.1μM)	NanoBRET Fold Response (GRPR; tracer 1μM)	NanoBRET Fold Response (SSTR5; tracer 0.1μM)	NanoBRET Fold Response (SSTR5; tracer 1μM)	other results
CN1CCN(C2=Nc3cc(Cl)ccc3Nc3ccc(CNC(=O)CCOCCOCCOCCOCCNC(=O)CCc4ccc5n4[B-](F)(F)[N+]4=C(c6ccc[nH]6)C=CC4=C5)cc32)CC1 [Clozapine-b-2-NB590]	–	–	–	–	–	–	NanoBRET Fold Response (CCR7; 0.1μM tracer): 1.00; NanoBRET Fold Response (GRPR; 0.1μM tracer): 1.01; NanoBRET Fold Response (GRPR; 1μM tracer): 1.00; NanoBRET Fold Response (SSTR5; 0.1μM tracer): 1.03; NanoBRET Fold Response (SSTR5; 1μM tracer): 1.00
CN1CCN(C2=Nc3cc(Cl)ccc3N(CC(=O)NCCOCCOCCOCCOCCNC(=O)CCc3ccc4n3[B-](F)(F)[N+]3=C(c5ccc[nH]5)C=CC3=C4)c3ccccc32)CC1 [Clozapine-c-2-NB590]	–	–	–	–	–	–	NanoBRET Fold Response (CCR7; 0.1μM tracer): 0.97; NanoBRET Fold Response (CCR7; 1μM tracer): 1.04; NanoBRET Fold Response (GRPR; 0.1μM tracer): 1.01; NanoBRET Fold Response (GRPR; 1μM tracer): 0.99; NanoBRET Fold Response (SSTR5; 0.1μM tracer): 1.01; NanoBRET Fold Response (SSTR5; 1μM tracer): 0.99
O=C(CCOCCOCCOCCOCCNC(=O)CCc1ccc2n1[B-](F)(F)[N+]1=C(c3ccc[nH]3)C=CC1=C2)NCCCN1CCN(C2=Nc3ccccc3Oc3ccc(Cl)cc32)CC1 [Loxapine-a-2-NB590]	1.00	1.11	1.17	1.09	1.10	1.15	–
COc1ccccc1N1CCN(CCCCN2C(=O)c3ccc(CNC(=O)CCOCCOCCOCCOCCNC(=O)CCc4ccc5n4[B-](F)(F)[N+]4=C(c6ccc[nH]6)C=CC4=C5)cc3C2=O)CC1 [NAN-190-2-NB590]	0.97	0.99	0.99	0.92	0.98	1.04	–
COc1ccccc1N1CCN(CCCCN2C(=O)c3ccc(CNC(=O)CCOCCNC(=O)c4ccc(CNC(=O)CCc5ccc6n5[B-](F)(F)[N+]5=C(c7ccc[nH]7)C=CC5=C6)cc4)cc3C2=O)CC1 [NAN-190-3-NB590]	1.01	1.00	0.87	0.94	1.02	1.03	–
O=C(CCc1ccc2n1[B-](F)(F)[N+]1=C(c3ccc[nH]3)C=CC1=C2)NCc1ccc(C(=O)NCCOCCC(=O)N[C@@H]2CC[C@@]3(O)[C@H]4Cc5ccc(O)c6c5[C@@]3(CCN4CC3CC3)[C@H]2O6)cc1 [Naltrexone-3-NB590]	1.07	1.05	0.91	0.92	0.96	0.96	–
Cc1cc2c(s1)Nc1ccccc1N=C2N1CCN(CCCNC(=O)CCOCCOCCOCCOCCNC(=O)CCc2ccc3n2[B-](F)(F)[N+]2=C(c4ccc[nH]4)C=CC2=C3)CC1 [Olanzapine-a-2-NB590]	1.01	1.05	0.95	0.93	1.01	1.02	–
O=C(CCc1ccc2n1[B-](F)(F)[N+]1=C(c3ccc[nH]3)C=CC1=C2)NCc1ccc(C(=O)NCCOCCOCCNCC(O)COc2cccc3ccccc23)cc1 (centres unmarked) [Propranolol-3-NB590]	–	–	–	–	–	–	NanoBRET Fold Response (CCR7; 0.1μM): 1.03; NanoBRET Fold Response (CCR7; 1μM): 1.01; NanoBRET Fold Response (GRPR; 0.1μM): 0.99; NanoBRET Fold Response (GRPR; 1μM): 1.03; NanoBRET Fold Response (SSTR5; 0.1μM): 1.01; NanoBRET Fold Response (SSTR5; 1μM): 1.02
